Assays:
Leukemia = test: NCI SRB cytotoxicity, leukemia panel; format: cell-based, human; details: average of six to eight different cancer cell lines; for Log10 LC50: 50% lethality
Description: (§1) Biological Activity: The in vitro biological activity studies were carried out at the National Cancer Institute, Maryland, USA.
(§2) The C8-linked isoxazoline-PBD hybrids have been tested against sixty human tumour cell lines derived from nine cancer types (leukemia, non-small cell lung cancer, colon cancer, CNS cancer, melanoma, ovarian cancer, renal cancer, prostate cancer and breast cancer) as per NCI protocol. For each compound, dose response curves for individual cell lines have been measured at a minimum of five concentrations at 10 fold dilutions. A protocol of 48 hrs continuous drug exposure has been used, and a sulforhodamine B (SRB) protein assay was used to estimate cell viability or growth. The concentration for 50% cell growth inhibition (GI50), total cell growth inhibition (TGI, 0% growth) and 50% cell death (LC50, […]) compared with the control has been calculated (FIG. 2).
(§3) Compound 5b and 9b have been evaluated for in vitro cytotoxicity in sixty cell lines from nine human cancer types of lung (Hop-62, NCI-H226, NCI-H522), leukemia (K-562, SR), colon (HCT-116, HCT-15, HCC-2998), CNS(SF-539), melanoma (SK-MEL-5, UACC-62, M14), ovarian (IGROV1), renal (A498), prostate (PC3) breast (BT-549, MDA-MB-435, HS578T) origin. The results are expressed as percent of cell growth determined relative to that of untreated control cells (Table 1).

[1] = test system: Non small cell lung cancer; test: NCI SRB cytotoxicity, non-small cell lung cancer panel; format: cell-based, human; details: average of six to eight different cancer cell lines; for Log10 LC50: 50% lethality
Description: as §1, §2, §3

Ovarian = test: NCI SRB cytotoxicity, ovarian cancer panel; format: cell-based, human; details: average of six to eight different cancer cell lines; for Log10 LC50: 50% lethality
Description: as §1, §2, §3

Prostate = test: NCI SRB cytotoxicity, prostate cancer panel; format: cell-based, human; details: average of six to eight different cancer cell lines; for Log10 LC50: 50% lethality
Description: as §1, §2, §3

Breast = test: NCI SRB cytotoxicity, breast cancer panel; format: cell-based, human; details: average of six to eight different cancer cell lines; for Log10 LC50: 50% lethality
Description: as §1, §2, §3

[2] = test system: duplex-form calf thymus DNA (CT-DNA); test: Thermal denaturation studies with calf thymus DNA; format: binding; details: [PBD]:[DNA] molar ratio 1:5, CT-DNA 100 μM, ligand 20 μM, pH 7.00
Description: Compounds have been subjected to thermal denaturation studies with duplex-form calf thymus DNA (CT-DNA) using a modification of a reported procedure. Working solutions in aqueous buffer (10 mM NaH2PO4/Na2HPO4, 1 mM Na2EDTA, pH 7.00+0.01) containing CT-DNA (100 (μm in phosphate) and the PBD (20(μm) have been prepared by addition of concentrated PBD solutions in DMSO to obtain a fixed [PBD]/[DNA] molar ratio of 1:5. The DNA-PBD solutions have been incubated at 37° C. for 0 and 18 hrs prior to analysis. Samples have been monitored at 260 nm using a Beckman DU-800 spectrophotometer fitted with high performance temperature controller, and heated at 1° C. min^−1 in the 40-110° C. range. DNA helix→coil transition temperatures (Tm) have been obtained from the maxima in the d(A260)/d T derivative plots. Drug-induced alterations in DNA melting behavior are given by: ΔTm=Tm(DNA+PBD)−Tm(DNA alone), where the Tm value for the PBD-free CT-DNA is 68.5±0.01.
The DNA-binding for these novel C8-linked isoxazoline-PBD hybrids has been examined by thermal denaturation studies using calf thymus CT-DNA. […] Data for 5a-c, 9b and 9g and DC-81 are included in Table 4 for comparison.

CCRF-CEM = test: NCI SRB cytotoxicity, CCRF-CEM (leukemia); format: cell-based, human; details: 48 hrs exposure
Description: as §1, §2, §3

K-562 = test: NCI SRB cytotoxicity, K-562 (leukemia); format: cell-based, human
Description: as §1, §2, §3

SR = test: NCI SRB cytotoxicity, SR (leukemia); format: cell-based, human
Description: as §1, §2, §3

NCI-H460 = test: NCI SRB cytotoxicity, NCI-H460 (non-small cell lung); format: cell-based, human; details: NCI-H460, Non-smallcell lung; 48 hrs exposure
Description: as §1, §2, §3

COLO 205 = test: NCI SRB cytotoxicity, COLO 205 (colon); format: cell-based, human; details: 48 hrs exposure
Description: as §1, §2, §3

HCT-116 = test: NCI SRB cytotoxicity, HCT-116 (colon); format: cell-based, human
Description: as §1, §2, §3

HT29 = test: NCI SRB cytotoxicity, HT29 (colon); format: cell-based, human; details: 48 hrs exposure
Description: as §1, §2, §3

KM12 = test: NCI SRB cytotoxicity, KM12 (colon); format: cell-based, human; details: 48 hrs exposure
Description: as §1, §2, §3

SF-268 = test: NCI SRB cytotoxicity, SF-268 (CNS); format: cell-based, human; details: 48 hrs exposure
Description: as §1, §2, §3

SF-539 = test: NCI SRB cytotoxicity, SF-539 (CNS); format: cell-based, human
Description: as §1, §2, §3

SNB-19 = test: NCI SRB cytotoxicity, SNB-19 (CNS); format: cell-based, human; details: 48 hrs exposure
Description: as §1, §2, §3

SNB-75 = test: NCI SRB cytotoxicity, SNB-75 (CNS); format: cell-based, human; details: 48 hrs exposure
Description: as §1, §2, §3

MALME-3M = test: NCI SRB cytotoxicity, MALME-3M (melanoma); format: cell-based, human; details: 48 hrs exposure
Description: as §1, §2, §3

UACC-257 = test: NCI SRB cytotoxicity, UACC-257 (melanoma); format: cell-based, human; details: 48 hrs exposure
Description: as §1, §2, §3

UACC-62 = test: NCI SRB cytotoxicity, UACC-62 (melanoma); format: cell-based, human
Description: as §1, §2, §3

IGROV1 = test: NCI SRB cytotoxicity, IGROV1 (ovarian); format: cell-based, human
Description: as §1, §2, §3

OVCAR-3 = test: NCI SRB cytotoxicity, OVCAR-3 (ovarian); format: cell-based, human; details: 48 hrs exposure
Description: as §1, §2, §3

CAKI-1 = test: NCI SRB cytotoxicity, CAKI-1 (renal); format: cell-based, human; details: 48 hrs exposure
Description: as §1, §2, §3

UO-31 = test: NCI SRB cytotoxicity, UO-31 (renal); format: cell-based, human; details: 48 hrs exposure
Description: as §1, §2, §3

MCF7 = test: NCI SRB cytotoxicity, MCF7 (breast); format: cell-based, human; details: 48 hrs exposure
Description: as §1, §2, §3

HS 578T = test: NCI SRB cytotoxicity, HS 578T (breast); format: cell-based, human
Description: as §1, §2, §3

T-47D = test: NCI SRB cytotoxicity, T-47D (breast); format: cell-based, human; details: 48 hrs exposure
Description: as §1, §2, §3

DU-145 = test: NCI SRB cytotoxicity, DU-145 (prostate); format: cell-based, human; details: 48 hrs exposure
Description: as §1, §2, §3

[3] = K-562, Leukemia, 48 hrs exposure
[4] = HCT-116, Colon, 48 hrs exposure
[5] = UACC-62, Melanoma, 48 hrs exposure
[6] = IGROV1, Ovarian, 48 hrs exposure
[7] = HS 578T, Breast, 48 hrs exposure

`COc1cc(C2=NOC(c3cc(OC)c(OC)c(OC)c3)C2)ccc1OCCCCOc1cc2c(cc1OC)C(=O)N1CCC[C@H]1C=N2` (stereo partly drawn) [Compound 5b, (11aS)-7-(methyloxy)-8-(4-[(2-(methyloxy)-4-5-[3,4,5-tri(methyloxy)phenyl]-4,5-dihydro-3-isoxazolylphenyl)oxy]butyloxy)-2,3,5,11a-tetrahydro-1H benzo[e]pyrrolo[1,2-a][1,4]diazepin-5-one] was tested, and the “Log10 LC50” value (Leukemia) was −4.18 mol/L, the Log10GI50 (Leukemia) was −6.76 mol/L and the “Log10 LC50” value [1] was −4.78 mol/L. The Log10GI50 [1] was −6.59 mol/L, the “Log10 LC50” value (Ovarian) was −4.84 mol/L and the Log10GI50 (Ovarian) was −6.44 mol/L. For the same molecule, the “Log10 LC50” value (Prostate) was −4.82 mol/L, the Log10GI50 (Prostate) was −6.49 mol/L and the “Log10 LC50” value (Breast) was −4.52 mol/L. For the same molecule, the Log10GI50 (Breast) was −6.74 mol/L, the “ΔTm after incubation at 37° C. for 0 hrs” value [2] was 4.1 °C and the “ΔTm after incubation at 37° C. for 18 hrs” value [2] was 6.2 °C. The GI50 (CCRF-CEM) was 160 nM, the GI50 (K-562; [3]) was 120 nM and the GI50 (K-562; leukemia K-562) was 120 nM. The GI50 (SR; SR, Leukemia, 48 hrs exposure) was 140 nM, the GI50 (SR; leukemia SR) was 140 nM and the GI50 (NCI-H460) was 210 nM. For the same molecule, the GI50 (COLO 205) was 210 nM, the GI50 (HCT-116; [4]) was 180 nM and the GI50 (HCT-116; colon cancer HCT-116) was 180 nM. The GI50 (HT29) was 360 nM, the GI50 (KM12) was 220 nM and the GI50 (SF-268) was 340 nM. It also gave a GI50 (SF-539; CNS SF-539) of 220 nM, a GI50 (SF-539; SF-539, CNS, 48 hrs exposure) of 220 nM and a GI50 (SNB-19) of 340 nM. For the same molecule, the GI50 (SNB-75) was 320 nM, the GI50 (MALME-3M) was 210 nM and the GI50 (UACC-257) was 270 nM. For the same molecule, the GI50 (UACC-62; [5]) was 160 nM, the GI50 (UACC-62; melanoma UACC-62) was 160 nM and the GI50 (IGROV1; [6]) was 240 nM. It also gave a GI50 (IGROV1; ovarian IGROV1) of 240 nM, a GI50 (OVCAR-3) of 270 nM and a GI50 (CAKI-1) of 250 nM. For the same molecule, the GI50 (UO-31) was 290 nM, the GI50 (MCF7) was 200 nM and the GI50 (HS 578T; [7]) was 160 nM. It also gave a GI50 (HS 578T; breast HS 578T) of 160 nM, a GI50 (T-47D) of 280 nM and a GI50 (DU-145) of 320 nM.
With `COc1ccc(C2CC(c3ccc(OC)c(OC)c3OC)=NO2)cc1OCCCCOc1cc2c(cc1OC)C(=O)N1CCC[C@H]1C=N2` (stereo partly drawn) [Compound 9b, (11aS)-7-(methyloxy)-8-(4-[(2-(methyloxy)-5-3-[2,3,4-tri(methyloxy)phenyl]-4,5-dihydro-5-isoxazolylphenyl)oxy]butyloxy)-2,3,5,11a-tetrahydro-1H-benzo[e]pyrrolo[1,2-a][1,4]diazepin-5-one] the “Log10 LC50” value (Leukemia) was −4.37 mol/L, the Log10GI50 (Leukemia) was −5.83 mol/L and the “Log10 LC50” value [1] was −4.73 mol/L. The Log10GI50 [1] was −5.70 mol/L, the “Log10 LC50” value (Ovarian) was −4.48 mol/L and the Log10GI50 (Ovarian) was −5.61 mol/L. For the same molecule, the “Log10 LC50” value (Prostate) was −4.54 mol/L, the Log10GI50 (Prostate) was −5.92 mol/L and the “Log10 LC50” value (Breast) was −4.34 mol/L. The Log10GI50 (Breast) was −5.74 mol/L, the “ΔTm after incubation at 37° C. for 0 hrs” value [2] was 1.2 °C and the “ΔTm after incubation at 37° C. for 18 hrs” value [2] was 2.3 °C. For the same molecule, the GI50 (CCRF-CEM) was 1410 nM, the GI50 (K-562; [3]) was 1260 nM and the GI50 (SR; SR, Leukemia, 48 hrs exposure) was 1120 nM. The GI50 (NCI-H460) was 1850 nM, the GI50 (COLO 205) was 1960 nM and the GI50 (HCT-116; [4]) was 1700 nM. For the same molecule, the GI50 (HT29) was 2750 nM, the GI50 (KM12) was 1740 nM and the GI50 (SF-268) was 1890 nM. It also gave a GI50 (SF-539; SF-539, CNS, 48 hrs exposure) of 1800 nM, a GI50 (SNB-19) of 1960 nM and a GI50 (SNB-75) of 1710 nM. For the same molecule, the GI50 (MALME-3M) was 2880 nM, the GI50 (UACC-257) was 2330 nM and the GI50 (UACC-62; [5]) was 1520 nM. It also gave a GI50 (IGROV1; [6]) of 1570 nM, a GI50 (OVCAR-3) of 1940 nM and a GI50 (CAKI-1) of 3090 nM. It also gave a GI50 (UO-31) of 2090 nM, a GI50 (MCF7) of 1750 nM and a GI50 (HS 578T; [7]) of 1100 nM. It also gave a GI50 (T-47D) of 1310 nM and a GI50 (DU-145) of 2480 nM.

— patent US8372831B2, “Isoxazoline linked pyrrolo[2,1-c][1,4]benzodiazepine hybrids as potential anticancer agents and the process for preparation thereof” (Council of Scientific & Industrial Research, priority 2008, dated 2013)
